The results in this text go back to patent publication US5932568A, “6-methoxy-1H-benzotriazole-5-carboxamide derivatives and pharmaceutical compositions containing them” (priority 1994, dated 1999).

Test [1] concerns apomorphine-induced vomiting. The experiment in a line: Inhibitory effect on apomorphine-induced vomiting. The test is classed as in vivo, dogs (Beagle). Particulars: Canis lupus familiaris, po, 1 h, 2 h before s.c. apomorphine hydrochloride 0.3 mg/kg, emetic episodes 1 h; for inhibition in vivo at 1 mg/kg: 1.0 mg/kg oral. How it is done:
A group of 3-4 dogs (Beagle, 8-15 kg) was used for examining inhibitory effects of the test compounds on apomorphine-induced vomiting according to the method of Chen and Ensor [cf. J. Pharmacol. Exp. Ther., 98, 245-250 (1950)]. Test compounds, dissolved or suspended in a 0.5% tragacanth solution were orally administered two hours before the subcutaneous administration of apomorphine hydrochloride (0.3 mg/kg). Then, the emetic episodes were counted for one hour. The emetic episodes of the compound-treated group were compared with those of the corresponding control (non-dosed) group, and the percent inhibition was calculated.

In another test the test system is exploratory activity. Put plainly: Inhibitory effect on exploratory activity. The test is classed as in vivo, male mice (Std-ddy strain). As to conditions: Mus musculus; oral, 2 h before test; 3 min counting; Probit; read-out: ID50 (inhibition of exploratory activity). An excerpt: A group of 5 male mice (Std-ddy strain, 20-25 g) was used. Two hours after oral administration of the test compounds in the form of 0.5% tragacanth solution or suspension, mice were placed individually in a test box (23×35×30 cm) on Animex activity meter (Farad Co.). Immediately thereafter, activity counting was started and lasted for three minutes. The mean counts of the compound-treated group were compared with those of the corresponding control (non-dosed) group, and the percent inhibition was calculated and the 50% inhibitory dose (ID50) was obtained according to the method of Probit.

In another test the test system is gastric emptying. Put plainly: Gastric emptying enhancing activity. The class given is in vivo, Male Wistar rats. As to conditions: 60 min before test meal, increase from control. How it is done: The test was carried out according to the method of Scarpignato et al. [cf. Arch. Int. Pharmacodyn., 246, 286-294 (1980)]. Male Wistar rats, weighing 130-150 g, were fasted for 18 hours before experimentation, and 1.5 ml of a test meal (phenol red 0.05% in a 1.5% aqueous methylcellulose solution) was orally given. Fifteen minutes after administration of the meal the stomach was removed and the amount of phenol red remaining in the stomach was measured. The test compounds, dissolved or suspended in a 0.5% tragacanth solution, were orally administered 60 minutes before administration of the test meal. The rate of gastric emptying was calculated according to the amount of phenol red remaining in the stomach, and the activity of the test compounds was expressed in terms of increase in the emptying rate from the control.

For test [2], the system named is gastrointestinal motility. Put plainly: Gastrointestinal motility improving activity (overall statement). As to conditions: in vivo.
For test [3], the system named is gastric emptying delayed by cholecystokinin. Put plainly: Effect on gastric emptying delayed by cholecystokinin. As to conditions: for Effect on gastric emptying delayed by cholecystokinin: cholecystokinin 3 μg/kg s.c. The class given is in vivo, Male Wistar rats. More on the design: key to Effect on gastric emptying delayed by cholecystokinin: +: slightly to moderately improved; ++: markedly improved; ±: no improvement. How it is done: (§1) The test was carried out according to the method of Scarpignato et al. [c f. Arch. int. Pharmacodyn., 246, 286-294 (1980)]. Male Wistar rats, weighing 130-150 g, were fasted for 18 hours before experimentation, and 1.5 ml of a test meal (phenol red 0.05% in a 1.5% aqueous methylcellulose solution) was orally given. Fifteen minutes after administration of the meal the stomach was removed and the amount of phenol red remaining in the stomach was measured. The test compounds, 10, 30 or 100 mg/kg, each dissolved or suspended in a 0.5% tragacanth solution, were orally administrated 60 minutes before administration of the test meal. Gastric emptying was delayed by subcutaneous administration of cholesystokinin 3 μg/kg or morphine 3 mg/kg 5 minutes before the administration of phenol red. The number of animals used was 5 to 10.

Test [4] relates to gastric emptying delayed by morphine. The experiment in a line: Effect on gastric emptying delayed by morphine. The class given is in vivo, Male Wistar rats. Particulars: for Effect on gastric emptying delayed by morphine: morphine 3 mg/kg s.c. More on the design: key to Effect on gastric emptying delayed by morphine: +: slightly to moderately improved; ++: markedly improved; ±: no improvement. The procedure: as §1

Test [5] has as its system gastrointestinal motility. The experiment in a line: Effect on gastrointestinal motility in conscious dog. The class given is in vivo, beagle dogs. As to conditions: 3 and 10 mg/kg intragastric; fed state, conscious dogs. How it is done: Four healthy beagle dogs per group of both sexes weighing 10 to 12 kg were anesthetized with an i.v. injection of pentobarbital sodium (Nembutal, 30 mg/kg b. wt.), and the abdominal cavity was opened under aseptic conditions. Extraluminal force transducers were sutured onto the seromuscular layer of the gastric antrum, 3 cm proximal to the pyloric ring, the duodenum, the jejunum, the […] terminal ileum in a manner to measure circular muscle contraction, following the method of Ito et al., [cf. Gastrointerol. Japan. 12, 275-283 (1977).] For intragastric (i.g.) administration of drugs, a Silastic tube (Fr. size 6.5) was inserted into the lumen of the gastric body, and the tube was fixed onto the adjacent serosa. The lead wires of these transducers and gastric tube were taken out of abdominal cavity and then brought out through a skin incision made between the scapulae. The outer ends of the lead wires were sutured onto the skin adjacent to the skin incision. After the operation, jacket protector was placed on the dog to protect the lead wires and the Silastic tube. The dogs were housed in individual experimental cages and given dog food at 10 a.m., and water was given freely. Test compounds at 3 and 10 mg/kg were suspended in 0.5% tragacanth solution and given i.g. through the indwelling Silastic tube.

Structures can show the parent of a compound that is named as a salt.

The inhibition in vivo is the relative decrease from the control value, in per cent.

In turn, `CCN1CCCCC(NC(=O)c2cc3nnn(C)c3cc2OC)C1` (stereo not drawn) [Compound 1, N-(1-ethyl-1H-hexahydroazepin-3-yl)-6-methoxy-1-methyl-1H-benzotriazole-5-carboxamide] came in with an inhibition in vivo at 1 mg/kg in test [1] of 77%. Moreover, the ED50 with exploratory activity is over 100 mg/kg.
In test [1], `CCN1CCCC[C@H](NC(=O)c2cc3nnn(C)c3cc2OC)C1` [Compound 3, (S)-N-(1-ethyl-1H-hexahydroazepin-3-yl)-6-methoxy-1-methyl-1H-benzotriazole-5-carboxamide] yielded an inhibition in vivo at 1 mg/kg of 36%.
In turn, `CCN1CCCCC(NC(=O)c2cc3nnn(CC)c3cc2OC)C1` (stereo not drawn) [Compound 4, 1-ethyl-N-(1-ethyl-1H-hexahydroazepin-3-yl)-6-methoxy-1H-benzotriazole-5-carboxamide] registered an inhibition in vivo at 1 mg/kg in test [1] of 89%. In addition, in the test with gastric emptying (3 mg/kg oral), the “Increase in gastric emptying rate” value was found to be 31%. In addition, in the test on exploratory activity, the ED50 was over 100 mg/kg.
In test [1], `CCN1CCCC[C@@H](NC(=O)c2cc3nnn(CC)c3cc2OC)C1` [Compound 5, (R)-1-ethyl-N-(1-ethyl-1H-hexahydroazepin-3-yl)-6-methoxy-1H-benzotriazole-5-carboxamide] came in with an inhibition in vivo at 1 mg/kg of 100%. In the test on gastric emptying (3 mg/kg oral), the “Increase in gastric emptying rate” value worked out at 35%.
In test [1] (0.3 mg/kg oral), `CCN1CCCCC(NC(=O)c2cc3nn[nH]c3cc2OC)C1` (stereo not drawn) [Compound 6, N-(1-ethyl-1H-hexahydroazepin-3-yl)-6-methoxy-1H-benzotriazole-5-carboxamide] yielded an inhibition in vivo at 0.3 mg/kg of 71%. The same molecule showed an inhibition in vivo at 1 mg/kg in test [1] of 100%. Moreover, the “Increase in gastric emptying rate” value in the test on gastric emptying (3 mg/kg oral) is given as 28%. Also, the ED50 in the test with exploratory activity is over 100 mg/kg.
In test [1] (0.1 mg/kg oral), `CCN1CCCC[C@@H](NC(=O)c2cc3nn[nH]c3cc2OC)C1` [Compound 7a, (R)-N-(1-ethyl-1H-hexahydroazepin-3-yl)-6-methoxy-1H-benzotriazole-5-carboxamide] had an inhibition in vivo at 0.1 mg/kg of 73%. For the same molecule, in test [1], the inhibition in vivo at 1 mg/kg amounted to 100%. For the same molecule, in the test with exploratory activity, the ED50 was over 100 mg/kg. In addition, the “Gastrointestinal motility improving activity (in words)” value in test [2] was “especially excellent gastrointestinal motility improving activity”.
Turning to `CCN1CCCC[C@H](NC(=O)c2cc3nn[nH]c3cc2OC)C1` [Compound 8b, (S)-N-(1-ethyl-1H-hexahydroazepin-3-yl)-6-methoxy-1H-benzotriazole-5-carboxamide.3/2 fumarate], in test [1], at 1 mg/kg the inhibition in vivo was 19%.
Same read-out and setting: the same measure for `CCN1CCCCCC(NC(=O)c2cc3nn[nH]c3cc2OC)C1` (stereo not drawn) [Compound 9, N-(1-ethyl-1H-heptahydroazocin-3-yl)-6-methoxy-1H-benzotriazole-5-carboxamide]: 100%.
In test [1], `CCN1CCCCCCC(NC(=O)c2cc3nn[nH]c3cc2OC)C1` (stereo not drawn) [Compound 10, N-(1-ethyl-1H-octahydroazonin-3-yl)-6-methoxy-1H-benzotriazole-5-carboxamide] displayed an inhibition in vivo at 1 mg/kg of 100%. Besides, the “Increase in gastric emptying rate” value in the test on gastric emptying (3 mg/kg oral) is recorded as 46%.
`COc1cc2[nH]nnc2cc1C(=O)NC1CCCCN(CC2CC2)C1` (stereo not drawn) [Compound 11, N-(1-cyclopropylmethyl-1H-hexahydroazepin-3-yl)-6-methoxy-1H-benzotriazole-5-carboxamide]: at 1 mg/kg the inhibition in vivo in test [1] was 92%. In addition, the “Increase in gastric emptying rate” value with gastric emptying (3 mg/kg oral) is 34%.
As to `COc1cc2[nH]nnc2cc1C(=O)N[C@@H]1CCCCN(CC2CC2)C1` [Compound 12, (R)-N-(1-cyclopropylmethyl-1H-hexahydroazepin-3-yl)-6-methoxy-1H-benzotriazole-5-carboxamide], the inhibition in vivo at 1 mg/kg in test [1] is 92%.
As to `COc1cc2c(cc1C(=O)N[C@@H]1CCCCN(CC3CC3)C1)nnn2C` [Compound 13, (R)-N-(1-cyclopropylmethyl-1H-hexahydroazepin-3-yl)-6-methoxy-1-methyl-1H-benzotriazole-5-carboxamide], in test [1], the inhibition in vivo at 1 mg/kg stood at 73%.
`CCN1CCCCCC(NC(=O)c2cc3nnn(C)c3cc2OC)C1` (stereo not drawn) [Compound 14, N-(1-ethyl-1H-heptahydroazocin-3-yl)-6-methoxy-1-methyl-1H-benzotriazole-5-carboxamide] returned an inhibition in vivo at 1 mg/kg in test [1] of 100%. The “Increase in gastric emptying rate” value in the test with gastric emptying (3 mg/kg oral) is reported as 32%.
For the molecule `CCN1CCCCCCC(NC(=O)c2cc3nnn(C)c3cc2OC)C1` (stereo not drawn) [Compound 15, N-(1-ethyl-1H-octahydroazonin-3-yl)-6-methoxy-1-methyl-1H-benzotriazole-5-carboxamide], at 1 mg/kg the inhibition in vivo in test [1] was 71%.
The molecule `CCN(CC)CCNC(=O)c1cc(Cl)c(N)cc1OC.Cl.O` [Compound A, 4-Amino-5-chloro-N-[2-(diethylamino)ethyl]-2-methoxybenzamide hydrochloride monohydrate, reference compound] registered an inhibition in vivo at 0.5 mg/kg in test [1] (0.5 mg/kg oral) of 56%. For the same molecule, the inhibition in vivo at 1 mg/kg in test [1] is 86%. Besides, the “Increase in gastric emptying rate” value turned out to be 21% with gastric emptying (2 mg/kg oral), 26% in the test on gastric emptying (5 mg/kg oral) and 31% in the test on gastric emptying (10 mg/kg oral). Besides, the “Effect on gastric emptying delayed by cholecystokinin” value in test [3] (10 mg/kg oral), in test [3] (30 mg/kg oral) and in test [3] (100 mg/kg oral) was “±” each time. Besides, the “Gastric emptying delayed by cholecystokinin (in words)” value in test [3] (compound 2: 30 or 100 mg/kg, 7b and Compound A: 10, 30 or 100 mg/kg) is recorded as “did not show an improving activity against the delay in gastric emptying induced by cholecystokinin or morphine”. Further, the “Effect on gastric emptying delayed by morphine” value in test [4] (10 mg/kg oral), in test [4] (30 mg/kg oral) and in test [4] (100 mg/kg oral) was “±” each time. Also, the “Gastric emptying delayed by morphine (in words)” value in test [4] (10, 30 or 100 mg/kg) is “did not show an improving activity against the delay in gastric emptying induced by cholecystokinin or morphine”. The Interdigestive migrating like-contractions result in test [5] is on record as “did not cause interdigestive migrating contractions at all”. Further, the ED50 in the test on exploratory activity turned out to be 22.4 mg/kg.
